IC50 and EC50 data for seven compounds are collected here from patent publication US20260242391A1 (priority 2023, published 2026).

The nature of data set [1]: in vitro. Conditions: human.
Data set [2] deals with HL-60. Briefly: HL-60 differentiation potency. Conditions: Homo sapiens. The data set is classed as cell-based.

As usually defined, the IC50 is the concentration needed to halve the response being measured. What is called EC50 is the concentration needed to bring the measured effect to its halfway point. A higher EC50 goes with weaker potency. Regarding `C[C@H]1[C@@H](Oc2ccc(Cn3cc(C(=O)O)nn3)c(Br)c2)O[C@@H]2O[C@@]3(C)CC[C@H]4[C@H](C)CC[C@@H]1[C@@]24OO3` [Compound 264, 1-(2-bromo-4-(((3R,5aS,6R,8aS,9R,10S,12R, 12aR)-3,6,9-trimethyldeca-hydro-12H-3,12-epoxy[1,2]dioxepino[4,3-i]isochromen-10-yl)oxy)benzyl)-1H-1,2,3-triazole-4-carboxylic acid], 1.43 µM corresponded to half-maximal inhibition in data set [1] (IC50). It took 159 nM to reach a half-maximal effect in data set [2] (EC50).

Compound `C[C@H]1[C@H](OCc2ccc(C(=O)O)cc2C(F)(F)F)O[C@@H]2O[C@@]3(C)CC[C@H]4[C@H](C)CC[C@@H]1[C@@]24OO3` [Compound 195, 3-(trifluoromethyl)-4-((((3R,5aS,6R,8aS, 9R,10R,12R, 12aR)-3,6,9-trimethyldeca-hydro-12H-3,12-epoxy[1,2]dioxepino[4,3-i]isochromen-10-yl)oxy)methyl) benzoic acid] came in with a 50% inhibitory concentration (IC50) in data set [1] of 10 µM. Also, a half-maximal effect in data set [2] (EC50) was put at 156 nM.

In data set [1], `C[C@H]1[C@@H](Oc2ccc([C@H](C)C(=O)O)cc2F)O[C@@H]2O[C@@]3(C)CC[C@H]4[C@H](C)CC[C@@H]1[C@@]24OO3` [Compound 282, (S)-2-(3-fluoro-4-(((3R,5aS,6R,8aS, 9R,10S,12R, 12aR)-3,6,9-trimethyldeca-hydro-12H-3,12-epoxy[1,2]dioxepino[4,3-i]isochromen-10-yl)oxy)phenyl) propanoic acid] returned an IC50 of 4.82 µM. This compound also came in with an EC50 in data set [2] of 12.7 nM.

`C[C@H]1[C@@H](OC(C)(C)[C@H]2C[C@@H](C(=O)O)C2)O[C@@H]2O[C@@]3(C)CC[C@H]4[C@H](C)CC[C@@H]1[C@@]24OO3` [Compound 206, (1R,3s)-3-(2-(((3R,5aS,6R,8aS, 9R,10S,12R, 12aR)-3,6,9-trimethyldeca-hydro-12H-3,12-epoxy[1,2]dioxepino[4,3-i]isochromen-10-yl)oxy)propan-2-yl)cyclobutane-1-carboxylic acid] displayed an IC50 in data set [1] of over 20 µM. This compound displayed an EC50 in data set [2] of 3830 nM.

Regarding `CO[C@]1(CO[C@H]2O[C@@H]3O[C@@]4(C)CC[C@H]5[C@H](C)CC[C@@H]([C@H]2C)[C@@]35OO4)CC[C@@H](C(=O)O)CC1` [Compound 199, (1S,4r)-4-methoxy-4-((((3R,5aS,6R,8aS, 9R,10S,12R, 12aR)-3,6,9-trimethyldeca-hydro-12H-3,12-epoxy[1,2]dioxepino[4,3-i]isochromen-10-yl)oxy)methyl) cyclohexane-1-carboxylic acid], in data set [1], the concentration for half-maximal inhibition (IC50) is over 20 µM. In addition, the EC50 in data set [2] amounted to 6480 nM.

The compound `C[C@H]1[C@@H](Oc2ccc(C(=O)N3[C@H](C(=O)O)C[C@@H]4CCC[C@@H]43)cc2)O[C@@H]2O[C@@]3(C)CC[C@H]4[C@H](C)CC[C@@H]1[C@@]24OO3` [Compound 207, (2S,3aS,6aS)-1-(4-(((3R,5aS,6R,8aS, 9R,10S,12R, 12aR)-3,6,9-trimethyldeca-hydro-12H-3,12-epoxy[1,2]dioxepino[4,3-i]isochromen-10-yl)oxy)benzoyl) octahydrocyclo penta[b]pyrrole-2-carboxylic acid] returned an IC50 in data set [1] of 0.68 µM. In data set [2], this compound returned a half-maximal effective concentration (EC50) of 150 nM.

Regarding `C[C@H]1[C@@H](Oc2ccc(C(=O)N[C@H](C(=O)O)C3CCC3)cc2)O[C@@H]2O[C@@]3(C)CC[C@H]4[C@H](C)CC[C@@H]1[C@@]24OO3` [Compound 251, (S)-2-cyclobutyl-2-(4-(((3R,5aS,6R,8aS, 9R,10S,12R, 12aR)-3,6,9-trimethyldeca-hydro-12H-3,12-epoxy[1,2]dioxepino[4,3-i]isochromen-10-yl)oxy)benzamido) acetic acid], half-maximal inhibition in data set [1] (IC50) was put at 1.52 µM. In data set [2], this compound displayed an EC50 of 98.2 nM.
